{
  "source": "ChEMBL document CHEMBL1201862",
  "about": "“PubChem BioAssay data set” (2004)",
  "assay_in_all_cases": "inhibition of tumour cell growth, NCI panel, 48 h",
  "key": {"SW-620": {"test_system": "SW-620"}, "RPMI-8226": {"test_system": "RPMI-8226"}, "MDA-MB-435": {"test_system": "MDA-MB-435"}, "SK-MEL-28": {"test_system": "SK-MEL-28"}, "HT-29": {"test_system": "HT-29"}, "ACHN": {"test_system": "ACHN"}, "COLO 205": {"test_system": "COLO 205"}, "HCT-116": {"test_system": "HCT-116"}, "A549": {"test_system": "A549"}, "SNB-75": {"test_system": "SNB-75"}, "KM12": {"test_system": "KM12"}, "MOLT-4": {"test_system": "MOLT-4"}, "Hs-578T": {"test_system": "Hs-578T"}, "OVCAR-8": {"test_system": "OVCAR-8"}, "HOP-62": {"test_system": "HOP-62"}, "OVCAR-5": {"test_system": "OVCAR-5"}, "NCI-H522": {"test_system": "NCI-H522"}, "HCC 2998": {"test_system": "HCC 2998"}, "786-0": {"test_system": "786-0"}, "SNB-19": {"test_system": "SNB-19"}, "RXF 393": {"test_system": "RXF 393"}, "CAKI-1": {"test_system": "CAKI-1"}, "NCI-H23": {"test_system": "NCI-H23"}, "UACC-257": {"test_system": "UACC-257"}, "SK-OV-3": {"test_system": "SK-OV-3"}, "SR": {"test_system": "SR"}, "HOP-92": {"test_system": "HOP-92"}, "LOX IMVI": {"test_system": "LOX IMVI"}, "A498": {"test_system": "A498"}, "NCI-H460": {"test_system": "NCI-H460"}, "EKVX": {"test_system": "EKVX"}, "MCF7": {"test_system": "MCF7"}, "UO-31": {"test_system": "UO-31"}, "HCT-15": {"test_system": "HCT-15"}, "OVCAR-3": {"test_system": "OVCAR-3"}, "BT-549": {"test_system": "BT-549"}, "SF-268": {"test_system": "SF-268"}, "K562": {"test_system": "K562"}, "NCI/ADR-RES": {"test_system": "NCI/ADR-RES"}, "MDA-MB-231": {"test_system": "MDA-MB-231"}, "IGROV-1": {"test_system": "IGROV-1"}, "Malme-3M": {"test_system": "Malme-3M"}, "TK-10": {"test_system": "TK-10"}, "T47D": {"test_system": "T47D"}, "SK-MEL-5": {"test_system": "SK-MEL-5"}, "NCI-H226": {"test_system": "NCI-H226"}, "M14": {"test_system": "M14"}, "HL-60": {"test_system": "HL-60"}, "PC-3": {"test_system": "PC-3"}, "SK-MEL-2": {"test_system": "SK-MEL-2"}, "U-251": {"test_system": "U-251"}, "SF-539": {"test_system": "SF-539"}, "OVCAR-4": {"test_system": "OVCAR-4"}, "SF-295": {"test_system": "SF-295"}, "UACC-62": {"test_system": "UACC-62"}, "DU-145": {"test_system": "DU-145"}, "CCRF-CEM": {"test_system": "CCRF-CEM"}, "SN12C": {"test_system": "SN12C"}},
  "note": "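Cells were grown in 96-well plates and exposed to each compound for 48 hours at five concentrations; endpoints were interpolated linearly between bracketing concentrations, or set to the highest concentration if not reached. GI50 is the concentration that inhibits growth by half.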 Active and inactive are the calls of the source. No stated cut-off is given here; in the data, active = GI50 up to about 1.1 µM and inactive = higher.",
  "data": [
    {"molecule": "CCCCCCCCCC[C@@H](O)[C@H]1CC[C@H]([C@H]2CC[C@H]([C@H](O)CCCCCCCCCC[C@@H]3CC(CC(C)=O)C(=O)O3)O2)O1", "note": "(stereo partly drawn)", "values": [
      {"measurement": "GI50", "setting": "SW-620", "result": "26.2 µM (inactive)"},
      {"measurement": "GI50", "setting": "RPMI-8226", "result": "0.231 µM (active)"},
      {"measurement": "GI50", "setting": "MDA-MB-435", "result": "> 39.1 µM (inactive)"},
      {"measurement": "GI50", "setting": "SK-MEL-28", "result": "> 50 µM (inactive)"},
      {"measurement": "GI50", "setting": "HT-29", "result": "4.41 µM (inactive)"},
      {"measurement": "GI50", "setting": "ACHN", "result": "> 28.5 µM (inactive)"},
      {"measurement": "GI50", "setting": "COLO 205", "result": "13 µM (inactive)"},
      {"measurement": "GI50", "setting": "HCT-116", "result": "0.112 µM (active)"},
      {"measurement": "GI50", "setting": "A549", "result": "9.93 µM (inactive)"},
      {"measurement": "GI50", "setting": "SNB-75", "result": "> 50 µM (inactive)"},
      {"measurement": "GI50", "setting": "KM12", "result": "15.8 µM (inactive)"},
      {"measurement": "GI50", "setting": "MOLT-4", "result": "3.77 µM (inactive)"},
      {"measurement": "GI50", "setting": "Hs-578T", "result": "7.19 µM (inactive)"},
      {"measurement": "GI50", "setting": "OVCAR-8", "result": "7.66 µM (inactive)"},
      {"measurement": "GI50", "setting": "HOP-62", "result": "46.5 µM (inactive)"},
      {"measurement": "GI50", "setting": "OVCAR-5", "result": "> 50 µM (inactive)"},
      {"measurement": "GI50", "setting": "NCI-H522", "result": "7.87 µM (inactive)"},
      {"measurement": "GI50", "setting": "HCC 2998", "result": "41.3 µM (inactive)"},
      {"measurement": "GI50", "setting": "786-0", "result": "23.2 µM (inactive)"},
      {"measurement": "GI50", "setting": "SNB-19", "result": "> 47.3 µM (inactive)"},
      {"measurement": "GI50", "setting": "RXF 393", "result": "20.7 µM (inactive)"},
      {"measurement": "GI50", "setting": "CAKI-1", "result": "> 47.1 µM (inactive)"},
      {"measurement": "GI50", "setting": "NCI-H23", "result": "1.7 µM (inactive)"},
      {"measurement": "GI50", "setting": "UACC-257", "result": "0.914 µM (active)"},
      {"measurement": "GI50", "setting": "SK-OV-3", "result": "31.8 µM (inactive)"},
      {"measurement": "GI50", "setting": "SR", "result": "0.562 µM (active)"},
      {"measurement": "GI50", "setting": "HOP-92", "result": "> 50 µM (inactive)"},
      {"measurement": "GI50", "setting": "LOX IMVI", "result": "1.12 µM (inactive)"},
      {"measurement": "GI50", "setting": "A498", "result": "> 28.5 µM (inactive)"},
      {"measurement": "GI50", "setting": "NCI-H460", "result": "0.254 µM (active)"},
      {"measurement": "GI50", "setting": "EKVX", "result": "7.43 µM (inactive)"},
      {"measurement": "GI50", "setting": "MCF7", "result": "13.8 µM (inactive)"},
      {"measurement": "GI50", "setting": "UO-31", "result": "23.7 µM (inactive)"},
      {"measurement": "GI50", "setting": "HCT-15", "result": 28.3, "unit": "µM"},
      {"measurement": "GI50", "setting": "OVCAR-3", "result": "15.1 µM (inactive)"},
      {"measurement": "GI50", "setting": "BT-549", "result": "46.2 µM (inactive)"},
      {"measurement": "GI50", "setting": "SF-268", "result": "> 50 µM (inactive)"},
      {"measurement": "GI50", "setting": "K562", "result": "0.374 µM (active)"},
      {"measurement": "GI50", "setting": "NCI/ADR-RES", "result": "4.69 µM (inactive)"},
      {"measurement": "GI50", "setting": "MDA-MB-231", "result": "> 50 µM (inactive)"},
      {"measurement": "GI50", "setting": "IGROV-1", "result": "> 34.4 µM (inactive)"},
      {"measurement": "GI50", "setting": "Malme-3M", "result": "16 µM (inactive)"},
      {"measurement": "GI50", "setting": "TK-10", "result": "> 39.4 µM (inactive)"},
      {"measurement": "GI50", "setting": "T47D", "result": "> 17.2 µM (inactive)"},
      {"measurement": "GI50", "setting": "SK-MEL-5", "result": "0.0929 µM (active)"},
      {"measurement": "GI50", "setting": "NCI-H226", "result": "23.8 µM (inactive)"},
      {"measurement": "GI50", "setting": "M14", "result": "26.3 µM (inactive)"},
      {"measurement": "GI50", "setting": "HL-60", "result": "5.61 µM (inactive)"},
      {"measurement": "GI50", "setting": "PC-3", "result": "21.7 µM (inactive)"},
      {"measurement": "GI50", "setting": "SK-MEL-2", "result": "> 40.9 µM (inactive)"},
      {"measurement": "GI50", "setting": "U-251", "result": "> 50 µM (inactive)"},
      {"measurement": "GI50", "setting": "SF-539", "result": "17.3 µM (inactive)"},
      {"measurement": "GI50", "setting": "OVCAR-4", "result": "28.7 µM (inactive)"},
      {"measurement": "GI50", "setting": "SF-295", "result": "1.94 µM (inactive)"},
      {"measurement": "GI50", "setting": "UACC-62", "result": "1.11 µM (active)"},
      {"measurement": "GI50", "setting": "DU-145", "result": "> 50 µM (inactive)"},
      {"measurement": "GI50", "setting": "CCRF-CEM", "result": "9.23 µM (inactive)"},
      {"measurement": "GI50", "setting": "SN12C", "result": "33.4 µM (inactive)"}
    ]}
  ]
}
